From article PMC12244496 (bioRxiv, 2025)
Where no end group is shown, it is not given here. [ ]: non-standard residue; d: D form. Lys(Me3) = C[N+](C)(C)CCCC[C@H](N)C(=O)O

How the values were obtained:
mESCs = experiment: Recovery of H3K27me1/2/3 in mESCs after tazemetostat treatment; assay type: cell-based, mouse; settings: 10 μM for 7 days
core PRC2 = core PRC2 (Homo sapiens, UniProt O75530+Q15910); experiment: PRC2-core activity assay; assay type: biochemical; settings: 50 μM peptide; histone H3 peptide (residues 21–44) substrate
core PRC2, sequence (Q15910 whole entry, the tested form may be a part): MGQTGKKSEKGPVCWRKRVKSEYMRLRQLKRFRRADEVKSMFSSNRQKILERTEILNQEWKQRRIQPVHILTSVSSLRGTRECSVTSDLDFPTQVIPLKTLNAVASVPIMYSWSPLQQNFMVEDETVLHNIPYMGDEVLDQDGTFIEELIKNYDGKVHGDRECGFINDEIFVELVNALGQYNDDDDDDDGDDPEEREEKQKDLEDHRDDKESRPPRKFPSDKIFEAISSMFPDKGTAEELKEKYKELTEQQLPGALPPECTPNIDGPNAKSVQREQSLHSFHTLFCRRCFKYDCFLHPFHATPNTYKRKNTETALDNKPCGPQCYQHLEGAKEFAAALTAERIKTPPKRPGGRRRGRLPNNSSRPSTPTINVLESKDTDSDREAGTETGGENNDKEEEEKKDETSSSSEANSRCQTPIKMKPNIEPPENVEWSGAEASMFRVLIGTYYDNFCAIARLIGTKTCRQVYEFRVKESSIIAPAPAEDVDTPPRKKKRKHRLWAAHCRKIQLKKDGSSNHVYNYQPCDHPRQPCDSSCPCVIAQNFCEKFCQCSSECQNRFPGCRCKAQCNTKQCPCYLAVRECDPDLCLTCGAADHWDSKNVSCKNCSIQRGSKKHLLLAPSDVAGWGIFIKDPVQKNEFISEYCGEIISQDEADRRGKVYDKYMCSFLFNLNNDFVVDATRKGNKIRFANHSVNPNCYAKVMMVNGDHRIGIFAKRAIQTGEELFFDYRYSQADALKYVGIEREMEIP
core PRC2, sequence (O75530 whole entry, the tested form may be a part): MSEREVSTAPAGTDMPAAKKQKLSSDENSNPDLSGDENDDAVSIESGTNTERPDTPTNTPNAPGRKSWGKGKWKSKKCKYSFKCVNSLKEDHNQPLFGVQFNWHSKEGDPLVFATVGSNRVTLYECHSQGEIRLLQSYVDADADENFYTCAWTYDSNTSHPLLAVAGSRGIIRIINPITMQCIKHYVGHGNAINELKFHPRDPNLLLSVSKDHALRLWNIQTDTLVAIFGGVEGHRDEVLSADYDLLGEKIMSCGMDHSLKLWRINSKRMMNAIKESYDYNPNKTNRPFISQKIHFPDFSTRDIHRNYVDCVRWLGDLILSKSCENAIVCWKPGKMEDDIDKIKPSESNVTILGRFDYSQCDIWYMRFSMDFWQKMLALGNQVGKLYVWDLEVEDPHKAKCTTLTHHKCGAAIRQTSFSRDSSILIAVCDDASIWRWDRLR
core PRC2, sequence (Q15022 whole entry partner, the tested form may be a part): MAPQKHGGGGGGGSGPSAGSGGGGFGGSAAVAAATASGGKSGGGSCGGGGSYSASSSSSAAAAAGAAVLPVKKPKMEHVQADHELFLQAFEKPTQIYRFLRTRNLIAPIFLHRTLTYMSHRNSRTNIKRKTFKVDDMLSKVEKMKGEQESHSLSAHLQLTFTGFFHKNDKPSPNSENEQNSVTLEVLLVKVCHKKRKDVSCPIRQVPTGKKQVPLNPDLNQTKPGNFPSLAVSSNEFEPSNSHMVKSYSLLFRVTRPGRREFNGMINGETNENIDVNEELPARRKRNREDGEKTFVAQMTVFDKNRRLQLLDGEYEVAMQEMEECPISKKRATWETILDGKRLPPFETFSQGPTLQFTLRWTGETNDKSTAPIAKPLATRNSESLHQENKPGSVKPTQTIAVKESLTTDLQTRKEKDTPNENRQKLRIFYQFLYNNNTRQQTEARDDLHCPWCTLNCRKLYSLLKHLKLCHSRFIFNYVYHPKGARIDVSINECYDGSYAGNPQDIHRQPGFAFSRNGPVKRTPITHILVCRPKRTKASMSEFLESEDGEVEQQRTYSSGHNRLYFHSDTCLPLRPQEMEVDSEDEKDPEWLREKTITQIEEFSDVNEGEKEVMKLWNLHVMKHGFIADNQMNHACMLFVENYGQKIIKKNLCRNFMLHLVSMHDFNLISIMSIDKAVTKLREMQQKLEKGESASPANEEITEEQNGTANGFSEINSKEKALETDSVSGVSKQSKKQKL
core PRC2, sequence (Q09028 whole entry partner, the tested form may be a part): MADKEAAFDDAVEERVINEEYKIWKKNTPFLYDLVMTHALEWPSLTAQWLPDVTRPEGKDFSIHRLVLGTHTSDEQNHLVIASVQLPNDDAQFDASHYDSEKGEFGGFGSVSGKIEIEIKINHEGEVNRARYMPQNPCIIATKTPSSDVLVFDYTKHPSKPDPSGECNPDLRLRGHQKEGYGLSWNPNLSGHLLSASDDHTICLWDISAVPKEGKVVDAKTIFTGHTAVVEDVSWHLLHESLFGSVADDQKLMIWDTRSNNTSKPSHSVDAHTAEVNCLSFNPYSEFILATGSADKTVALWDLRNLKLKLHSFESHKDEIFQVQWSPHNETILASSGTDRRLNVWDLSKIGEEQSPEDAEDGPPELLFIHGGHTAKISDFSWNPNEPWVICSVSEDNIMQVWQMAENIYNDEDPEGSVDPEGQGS

| Compound | depletion of H3K27me1/2/3 (mESCs) | PRC2 activity (%) (core PRC2) |
| --- | --- | --- |
| CCN(c1cc(-c2ccc(CN3CCOCC3)cc2)cc(C(=O)NCc2c(C)cc(C)[nH]c2=O)c1C)C1CCOCC1 [tazemostat, tazemetostat] | completely depleted |  |
| KAAR[Lys(Me3)]SAPA [compound 2] |  | 583±28 |
| TKAAR[Lys(Me3)]SA [compound 4] |  | 485±93 |
